# In PubChem BioAssay (NCI):
#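 Results reflect a 48-hour exposure of cells in 96-well plates to compound at five concentrations. GI50 marks 50% less growth. TGI: concentration producing complete growth inhibition.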
# How the values were obtained:
# Assay in all cases: DTP human tumour cell line panel, 48 h
# RXF 393 renal = system: RXF 393 renal
# MCF7 breast = system: MCF7 breast
# NCI-H522 lung = system: NCI-H522 lung
# MDA-MB-231 breast = system: MDA-MB-231 breast
# SK-OV-3 ovarian = system: SK-OV-3 ovarian
# IGROV1 ovarian = system: IGROV1 ovarian
# HOP-92 NSCLC = system: HOP-92 NSCLC
# SF-539 CNS = system: SF-539 CNS
# MALME-3M melanoma = system: MALME-3M melanoma
# NCI-H23 lung = system: NCI-H23 lung
# NCI/ADR-RES ovarian = system: NCI/ADR-RES ovarian
# OVCAR-3 ovarian = system: OVCAR-3 ovarian
# OVCAR-5 ovarian = system: OVCAR-5 ovarian
# A498 renal = system: A498 renal
# CAKI-1 renal = system: CAKI-1 renal
# HCT-116 colon = system: HCT-116 colon
# UACC-62 melanoma = system: UACC-62 melanoma
# K-562 leukemia = system: K-562 leukemia
# HOP-62 NSCLC = system: HOP-62 NSCLC
# SNB-19 CNS = system: SNB-19 CNS
# EKVX NSCLC = system: EKVX NSCLC
# SF-295 CNS = system: SF-295 CNS
# M14 melanoma = system: M14 melanoma
# SW-620 colon = system: SW-620 colon
# NCI-H460 lung = system: NCI-H460 lung
# HCC-2998 colon = system: HCC-2998 colon
# RPMI-8226 leukemia = system: RPMI-8226 leukemia
# SF-268 CNS = system: SF-268 CNS
# MDA-MB-435 = system: MDA-MB-435
# BT-549 breast = system: BT-549 breast
# ACHN renal = system: ACHN renal
# PC-3 prostate = system: PC-3 prostate
# DU-145 prostate = system: DU-145 prostate
# MOLT-4 leukemia = system: MOLT-4 leukemia
# KM12 colon = system: KM12 colon
# OVCAR-4 ovarian = system: OVCAR-4 ovarian
# 786-0 renal = system: 786-0 renal
# COLO 205 colon = system: COLO 205 colon
# SN12C renal = system: SN12C renal
# SK-MEL-28 melanoma = system: SK-MEL-28 melanoma
# SK-MEL-2 melanoma = system: SK-MEL-2 melanoma
# CCRF-CEM leukemia = system: CCRF-CEM leukemia
# LOX IMVI melanoma = system: LOX IMVI melanoma
# NCI-H226 lung = system: NCI-H226 lung
# U251 CNS = system: U251 CNS
# OVCAR-8 ovarian = system: OVCAR-8 ovarian
# HS 578T breast = system: HS 578T breast
# HCT-15 colon = system: HCT-15 colon
# SK-MEL-5 melanoma = system: SK-MEL-5 melanoma
# UO-31 renal = system: UO-31 renal
# UACC-257 melanoma = system: UACC-257 melanoma
# T-47D breast = system: T-47D breast
# A549 NSCLC = system: A549 NSCLC
# TK-10 renal = system: TK-10 renal
# HT29 colon = system: HT29 colon
compound,measurement,setting,value
COc1cc2c(cc1OC)[C@@]1(C)C(=O)c3cc4c(cc3[C@H]1N(C)C2=O)OCO4,GI50,RXF 393 renal,26.9 µM
same,TGI,RXF 393 renal,> 100 µM
same,GI50,MCF7 breast,65.3 µM
same,TGI,MCF7 breast,> 100 µM
same,GI50,NCI-H522 lung,10.4 µM
same,TGI,NCI-H522 lung,85.6 µM
same,GI50,MDA-MB-231 breast,25 µM
same,TGI,MDA-MB-231 breast,> 100 µM
same,GI50,SK-OV-3 ovarian,95.5 µM
same,TGI,SK-OV-3 ovarian,> 100 µM
same,GI50,IGROV1 ovarian,33.9 µM
same,TGI,IGROV1 ovarian,> 100 µM
same,GI50,HOP-92 NSCLC,28.8 µM
same,TGI,HOP-92 NSCLC,> 100 µM
same,GI50,SF-539 CNS,24 µM
same,TGI,SF-539 CNS,75.7 µM
same,GI50,MALME-3M melanoma,75.1 µM
same,TGI,MALME-3M melanoma,> 100 µM
same,GI50,NCI-H23 lung,> 100 µM
same,TGI,NCI-H23 lung,> 100 µM
same,GI50,NCI/ADR-RES ovarian,59.6 µM
same,TGI,NCI/ADR-RES ovarian,> 100 µM
same,GI50,OVCAR-3 ovarian,96.2 µM
same,TGI,OVCAR-3 ovarian,> 100 µM
same,GI50,OVCAR-5 ovarian,> 100 µM
same,TGI,OVCAR-5 ovarian,> 100 µM
same,GI50,A498 renal,18.6 µM
same,TGI,A498 renal,90.7 µM
same,GI50,CAKI-1 renal,37.3 µM
same,TGI,CAKI-1 renal,> 100 µM
same,GI50,HCT-116 colon,43.6 µM
same,TGI,HCT-116 colon,> 100 µM
same,GI50,UACC-62 melanoma,26 µM
same,TGI,UACC-62 melanoma,> 100 µM
same,GI50,K-562 leukemia,47.6 µM
same,TGI,K-562 leukemia,> 100 µM
same,GI50,HOP-62 NSCLC,> 100 µM
same,TGI,HOP-62 NSCLC,> 100 µM
same,GI50,SNB-19 CNS,> 100 µM
same,TGI,SNB-19 CNS,> 100 µM
same,GI50,EKVX NSCLC,55 µM
same,TGI,EKVX NSCLC,> 100 µM
same,GI50,SF-295 CNS,43.3 µM
same,TGI,SF-295 CNS,> 100 µM
same,GI50,M14 melanoma,82.6 µM
same,TGI,M14 melanoma,> 100 µM
same,GI50,SW-620 colon,65.4 µM
same,TGI,SW-620 colon,> 100 µM
same,GI50,NCI-H460 lung,37.7 µM
same,TGI,NCI-H460 lung,> 100 µM
same,GI50,HCC-2998 colon,74.7 µM
same,TGI,HCC-2998 colon,> 100 µM
same,GI50,RPMI-8226 leukemia,33.9 µM
same,TGI,RPMI-8226 leukemia,> 100 µM
same,GI50,SF-268 CNS,64.6 µM
same,TGI,SF-268 CNS,> 100 µM
same,GI50,MDA-MB-435,> 100 µM
same,TGI,MDA-MB-435,> 100 µM
same,GI50,BT-549 breast,29 µM
same,TGI,BT-549 breast,> 100 µM
same,GI50,ACHN renal,52.2 µM
same,TGI,ACHN renal,> 100 µM
same,GI50,PC-3 prostate,75.2 µM
same,TGI,PC-3 prostate,> 100 µM
same,GI50,DU-145 prostate,58.1 µM
same,TGI,DU-145 prostate,> 100 µM
same,GI50,MOLT-4 leukemia,33.3 µM
same,TGI,MOLT-4 leukemia,> 100 µM
same,GI50,KM12 colon,> 100 µM
same,TGI,KM12 colon,> 100 µM
same,GI50,OVCAR-4 ovarian,> 100 µM
same,TGI,OVCAR-4 ovarian,> 100 µM
same,GI50,786-0 renal,54.3 µM
same,TGI,786-0 renal,> 100 µM
same,GI50,COLO 205 colon,> 100 µM
same,TGI,COLO 205 colon,> 100 µM
same,GI50,SN12C renal,82.4 µM
same,TGI,SN12C renal,> 100 µM
same,GI50,SK-MEL-28 melanoma,> 100 µM
same,TGI,SK-MEL-28 melanoma,> 100 µM
same,GI50,SK-MEL-2 melanoma,40.4 µM
same,TGI,SK-MEL-2 melanoma,> 100 µM
same,GI50,CCRF-CEM leukemia,38 µM
same,TGI,CCRF-CEM leukemia,> 100 µM
same,GI50,LOX IMVI melanoma,48.4 µM
same,TGI,LOX IMVI melanoma,> 100 µM
same,GI50,NCI-H226 lung,44.1 µM
same,TGI,NCI-H226 lung,> 100 µM
same,GI50,U251 CNS,34.3 µM
same,TGI,U251 CNS,> 100 µM
same,GI50,OVCAR-8 ovarian,29.3 µM
same,TGI,OVCAR-8 ovarian,> 100 µM
same,GI50,HS 578T breast,41.1 µM
same,TGI,HS 578T breast,> 100 µM
same,GI50,HCT-15 colon,> 100 µM
same,TGI,HCT-15 colon,> 100 µM
same,GI50,SK-MEL-5 melanoma,45.5 µM
same,TGI,SK-MEL-5 melanoma,> 100 µM
same,GI50,UO-31 renal,34.8 µM
same,TGI,UO-31 renal,> 100 µM
same,GI50,UACC-257 melanoma,23.7 µM
same,TGI,UACC-257 melanoma,91.9 µM
same,GI50,T-47D breast,37.9 µM
same,TGI,T-47D breast,> 100 µM
same,GI50,A549 NSCLC,62.9 µM
same,TGI,A549 NSCLC,> 100 µM
same,GI50,TK-10 renal,67.3 µM
same,TGI,TK-10 renal,> 100 µM
same,GI50,HT29 colon,88 µM
same,TGI,HT29 colon,> 100 µM
